# Earlier results in patent publication US7220858B2, “Synthesis of hydrazine and chlorinated derivatives of bicyclic pyridazines” (Barbeau Pharma, Inc., priority 2003, dated 2007).
# Where two headings read alike, the source gives them in different places.
# Tests used:
# [1] = test system: vascular smooth muscle
# [2] = in the presence of oxygen and metal ions such as Cu+2, Fe+2, and Fe+3
smiles,measurement,setting,value
"NNc1nncc2ccccc12 [Hydralazine, 1-hydrazinophthalazine]",onset of action,[1]; given intravenously,10 to 20 min
same,metabolism and excretion,[1]; in the body,extensively metabolized in the body to products that are excreted predominantly in the urine
same,duration of action,[1]; in vivo,3 to 4 h
same,onset of action,[1]; in vivo,10 to 30 min
same,time to maximum hypotensive effect,[1]; in vivo,10 to 80 min
same,oxidation,[2],oxidizes rapidly
